Results as given in patent EP1388586A2, “Identification of broadly reactive DR restricted epitopes” (priority 1998, dated 1999).
Where two headings read alike, the source gives them in different places. Ends that are not written are not given here.

Experiments:
[1] = biological target: T1, DRB1*0101 (DR1) (Homo sapiens, UniProt P01903+P01911, A100R/D57E/F55L/F60I/F76Y/I96L/L162R/M171V/P40L/Q125E/R42F/V115G/Y59C); assay: Class II peptide-binding assay, DR1;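 also: competition assay: unlabeled test peptides inhibit binding of a radiolabeled probe peptide to purified DR, with half-maximal inhibition taken as an approximate dissociation constant Kd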
T1 construct: used as sources of human HLA class II molecules; endogenous in cells; host or cells: LG2 (EBV-transformed homozygous B cell line)
Description: Class II peptide-binding assays. […] These assays were chosen as to be representative of the most common DR alleles.
Radiolabeled peptides were iodinated using the chloramine-T method. […] In appropriate stoichiometric conditions, the IC50 of an unlabeled test peptide to the purified DR is a reasonable approximation of the affinity of interaction (Kd). Peptides were tested in two to four completely independent experiments. […] Final detergent concentration in the incubation mixture was 0.05% Nonidet P-40. Assays were performed at pH 7.0 with the exception of DR3, which was performed at pH 4.5, and DRw53, which was performed at pH 5.0.
All subsequent inhibition and direct binding assays were the performed using these class II concentrations.

[2] = biological target: T2, DRB5*0101 (DR2w2a) (Homo sapiens, UniProt P01903+Q30154); assay: Class II peptide-binding assay, DR2w2a (DR2w2B2);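 also: competitive binding assay: unlabeled peptide inhibiting binding of a radiolabeled probe peptide to purified DR molecules at pH 7.0, IC50 approximating Kd, lower means stronger binding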
T2 construct: used as sources of human HLA class II molecules; endogenous in cells; host or cells: GM3107 (EBV-transformed homozygous B cell line)

[3] = biological target: T3, DRB1*0401 (DR4w4) (Homo sapiens, UniProt P01903+P01911, A100K/A169T/F76Y/I96L/K127E/L162R/M171V/N62H/P40V/Q125Y/R42H/S133A/S149N/S66Y/V115G/V209L/W38E); assay: Class II peptide-binding assay, DR4w4;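 also: unlabeled test peptides compete with a radiolabeled probe peptide for binding to affinity-purified HLA-DR, with DR amount titrated to capture a small fraction of label, IC50 approximating Kd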
T3 construct: used as sources of human HLA class II molecules; endogenous in cells; host or cells: PREISS (EBV-transformed homozygous B cell line)

[4] = biological target: T4, DRB10404 (DR4w14) (Homo sapiens, UniProt P01903+P01911, A100R/A169T/F76Y/I96L/K127E/L162R/M171V/N62H/P40V/Q125Y/R42H/S133A/S149N/S66Y/V209L/W38E); assay: Class II peptide-binding assay, DR4w14;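 also: unlabeled peptides compete with a radiolabeled probe for binding to affinity-purified HLA-DR, neutral pH, class II amount titrated to bind a small fraction of label, IC50 approximates Kd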
T4 construct: used as sources of human HLA class II molecules; endogenous in cells; host or cells: BIN40 (EBV-transformed homozygous B cell line)

[5] = biological target: T5, DRB1*1101 (DR5w11) (Homo sapiens, UniProt P01903+P01911, A100R/A169T/A87E/I96F/K41T/L162R/M171V/P40S/Q125H/Q178H/Q39Y/Q99D/R42S/S66Y/T262R/V115G/W38E); assay: Class II peptide-binding assay, DR5w11;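 also: competition by unlabeled test peptide against iodinated probe peptide binding to affinity-purified HLA-DR, class II amount titrated beforehand, half-maximal inhibitory concentration read as approximate Kd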
T5 construct: used as sources of human HLA class II molecules; endogenous in cells; host or cells: SWEIG (EBV-transformed homozygous B cell line)

[6] = biological target: DRB1*0701 (DR7) (Homo sapiens, UniProt P01903+P01911, A100R/A102G/A103Q/D57E/D86V/E43K/F76Y/K127E/L162R/M171V/P40G/Q125H/Q99D/R33Q/R42Y/R54Q/S133A/S66F/T210M/V115G/Y107V/Y59L/Y89S); assay: Class II peptide-binding assay, DR7;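 also: unlabeled peptides compete with an iodinated probe peptide for binding to affinity-purified HLA-DR at neutral pH, DR amount titered to bind a small tracer fraction, IC50 approximating Kd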
[7] = read-out: DR1 nM (In IC50 Format), purified HLA DR1
[8] = read-out: DR2w2B2 nM (In IC50 Format), purified HLA DR2w2β2
[9] = read-out: DR4w4 nM (In IC50 Format), purified HLA DR4w4
[10] = read-out: DR4w14 nM (In IC50 Format), purified HLA DR4w14
[11] = read-out: DR5w11 nM (In IC50 Format), purified HLA DR5w11
[12] = read-out: DR7 nM (In IC50 Format), purified HLA DR7
[13] = read-out: DR1 nM, Table VIII, In IC50 Format
[14] = read-out: DR2w2B2 nM, Table VIII, In IC50 Format
[15] = read-out: DR4w4 nM, Table VIII, In IC50 Format
[16] = read-out: DR4w14 nM, Table VIII, In IC50 Format
[17] = read-out: DR5w11 nM, Table VIII, In IC50 Format
[18] = read-out: DR7 nM, Table VIII, In IC50 Format
[19] = purified HLA DR1, read-out: DR1 nM (In IC50 Format)
[20] = purified HLA DR2w2β2, read-out: DR2w2B2 nM (In IC50 Format)
[21] = purified HLA DR4w4, read-out: DR4w4 nM (In IC50 Format)
[22] = purified HLA DR4w14, read-out: DR4w14 nM (In IC50 Format)
[23] = purified HLA DR5w11, read-out: DR5w11 nM (In IC50 Format)
[24] = purified HLA DR7, read-out: DR7 nM (In IC50 Format)

T5 sequence (P01903 26-254, other chains not shown): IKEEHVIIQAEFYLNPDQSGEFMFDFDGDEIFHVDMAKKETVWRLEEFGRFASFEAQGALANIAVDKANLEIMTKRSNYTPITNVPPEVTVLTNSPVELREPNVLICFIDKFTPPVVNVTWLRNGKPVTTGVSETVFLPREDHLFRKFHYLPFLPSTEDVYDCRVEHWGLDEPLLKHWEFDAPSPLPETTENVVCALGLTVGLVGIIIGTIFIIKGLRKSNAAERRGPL

Row | Compound | IC50 [1, 7] | IC50 [2, 8] | IC50 [3, 9] | IC50 [4, 10] | IC50 [5, 11] | IC50 [6, 12] | also measured
1 | YARFQSNTTLKAKT-NH2 [Peptide 717.47] | 41.7 nM | 444 nM | 3.8 nM | 14.7 nM | 18.2 nM | 4170 nM | 
2 | EALVRQGLAKVAYVYKPNN [NASE 101-] |  |  |  |  |  |  | IC50 [1, 13]: 2.2 nM; IC50 [2, 14]: 154 nM; IC50 [3, 15]: 978 nM; IC50 [4, 16]: 1140 nM; IC50 [5, 17]: 100 nM; IC50 [6, 18]: 454 nM
3 | YARFQSQTVLKAKT-NH2 [Peptide 717.32] | 7.6 nM | 400 nM | 5.7 nM | 10.4 nM | 14.3 nM | 151 nM | 
4 | CC[C@H](C)[C@H](NC(=O)CNC(=O)[C@@H](NC(=O)[C@H](Cc1ccccc1)NC(=O)[C@H](CCCCN)NC(=O)[C@H](CO)NC(=O)[C@H](CC(N)=O)NC(=O)[C@H](C)NC(=O)[C@H](CCCCN)NC(=O)[C@@H](NC(=O)[C@H](Cc1ccc(O)cc1)NC(=O)[C@@H](N)CCC(N)=O)[C@@H](C)CC)[C@@H](C)CC)C(=O)N[C@H](C(=O)N[C@@H](CCC(=O)O)C(=O)N[C@@H](CC(C)C)C(=O)N[C@@H](CCCCN)C(=O)N[C@@H](CCCCN)C(N)=O)[C@@H](C)O [Peptide 812.01] |  |  |  |  |  |  | IC50 [1, 19]: 80.6 nM; IC50 [2, 20]: 16 nM; IC50 [3, 21]: 409 nM; IC50 [4, 22]: 16700 nM; IC50 [5, 23]: 28.6 nM; IC50 [6, 24]: 357 nM
5 | YSRFQSQTTLKAKT-NH2 [Peptide 717.38] | 6.1 nM | 274 nM | 10 nM | 15.2 nM | 16.7 nM | 6250 nM | 
6 | YAEFQSQTTLKAKT-NH2 [Peptide 717.41] | 23.8 nM | 667 nM | 32.1 nM | 65.8 nM | 38.5 nM | 25000 nM | 
7 | CC(C)C[C@H](NC(=O)[C@H](CCCCN)NC(=O)[C@H](CC(C)C)NC(=O)[C@@H](NC(=O)[C@H](CC(N)=O)NC(=O)[C@H](CCC(N)=O)NC(=O)[C@H](CCCCN)NC(=O)[C@@H](NC(=O)[C@H](Cc1ccc(O)cc1)NC(=O)[C@H](CCCCN)NC(=O)[C@@H]1CCCN1C(=O)[C@@H](N)CS)C(C)C)[C@@H](C)O)C(=O)N[C@@H](C)C(=O)N[C@H](C(=O)NCC(=O)O)[C@@H](C)O [Peptide 852.01] |  |  |  |  |  |  | IC50 [1, 13]: 31.6 nM; IC50 [2, 14]: 2.9 nM; IC50 [3, 15]: 30 nM; IC50 [4, 16]: 7140 nM; IC50 [5, 17]: 39.2 nM; IC50 [6, 18]: 65.8 nM
8 | YARFASQTTLKAKT-NH2 [Peptide 717.56] | 3.1 nM | 118 nM | 5.2 nM | 12.8 nM | 21.1 nM | 6250 nM | 
9 | LMQYIKANSKFIGITE [Peptide 812.03] |  |  |  |  |  |  | IC50 [1, 19]: 13.2 nM; IC50 [2, 20]: 4.9 nM; IC50 [3, 21]: 150 nM; IC50 [4, 22]: 65.8 nM; IC50 [5, 23]: 13.9 nM; IC50 [6, 24]: 11.9 nM
10 | YARFQSQSTLKAKT-NH2 [Peptide 717.16] | 6 nM | 105 nM | 1.8 nM | 8.1 nM | 4 nM | 3570 nM | 
11 | KYLATASTMDHARHGFLP [Peptide 765.02] | 50000 nM | 10000 nM | 100 nM | 86.5 nM | 5000 nM | 157 nM | 
12 | MQYIKANSKFIGITE [Peptide 812.05] |  |  |  |  |  |  | IC50 [1, 19]: 64.1 nM; IC50 [2, 20]: 2.4 nM; IC50 [3, 21]: 229 nM; IC50 [4, 22]: 84.5 nM; IC50 [5, 23]: 6.7 nM; IC50 [6, 24]: 7.8 nM
